Data published in ChEMBL document CHEMBL5465560, “Selectivity Literature for EUbOPEN Chemogenomic Library” (2024).

How the values were obtained:
[1] = molecular target: T1, Cytoplasmic tyrosine-protein kinase BMX (Homo sapiens) (UniProt P51813); conditions: at 10 µM
T1 sequence (whole entry): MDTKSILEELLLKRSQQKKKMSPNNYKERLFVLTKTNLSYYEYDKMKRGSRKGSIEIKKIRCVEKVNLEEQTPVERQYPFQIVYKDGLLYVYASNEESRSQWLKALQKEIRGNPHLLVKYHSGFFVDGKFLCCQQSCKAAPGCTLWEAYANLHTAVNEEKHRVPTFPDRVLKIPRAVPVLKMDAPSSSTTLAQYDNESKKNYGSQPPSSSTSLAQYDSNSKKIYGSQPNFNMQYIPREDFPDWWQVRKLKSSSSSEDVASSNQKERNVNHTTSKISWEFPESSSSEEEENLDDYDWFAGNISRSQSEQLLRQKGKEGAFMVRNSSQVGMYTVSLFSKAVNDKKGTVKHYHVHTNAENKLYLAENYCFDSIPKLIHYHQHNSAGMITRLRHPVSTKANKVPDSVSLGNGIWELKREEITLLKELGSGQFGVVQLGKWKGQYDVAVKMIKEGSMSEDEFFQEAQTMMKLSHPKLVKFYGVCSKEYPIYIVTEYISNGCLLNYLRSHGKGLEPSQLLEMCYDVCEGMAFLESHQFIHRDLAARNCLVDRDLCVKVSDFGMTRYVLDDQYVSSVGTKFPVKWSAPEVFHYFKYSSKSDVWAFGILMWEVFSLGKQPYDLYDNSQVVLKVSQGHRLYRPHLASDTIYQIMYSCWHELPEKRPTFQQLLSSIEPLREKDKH

[2] = molecular target: 5'-AMP-activated protein kinase catalytic subunit alpha-2 (Homo sapiens) (UniProt P54646); assay: Selectivity interaction (KinomeScan (DiscoverX)) EUB0001049a PRKAA2; conditions: at 1 µM
[3] = molecular target: T2, Mitogen-activated protein kinase kinase kinase 19 (Homo sapiens) (UniProt Q56UN5); assay: Selectivity interaction (KinomeScan (DiscoverX)) EUB0001049a MAP3K19; conditions: at 1 µM
T2 sequence (whole entry): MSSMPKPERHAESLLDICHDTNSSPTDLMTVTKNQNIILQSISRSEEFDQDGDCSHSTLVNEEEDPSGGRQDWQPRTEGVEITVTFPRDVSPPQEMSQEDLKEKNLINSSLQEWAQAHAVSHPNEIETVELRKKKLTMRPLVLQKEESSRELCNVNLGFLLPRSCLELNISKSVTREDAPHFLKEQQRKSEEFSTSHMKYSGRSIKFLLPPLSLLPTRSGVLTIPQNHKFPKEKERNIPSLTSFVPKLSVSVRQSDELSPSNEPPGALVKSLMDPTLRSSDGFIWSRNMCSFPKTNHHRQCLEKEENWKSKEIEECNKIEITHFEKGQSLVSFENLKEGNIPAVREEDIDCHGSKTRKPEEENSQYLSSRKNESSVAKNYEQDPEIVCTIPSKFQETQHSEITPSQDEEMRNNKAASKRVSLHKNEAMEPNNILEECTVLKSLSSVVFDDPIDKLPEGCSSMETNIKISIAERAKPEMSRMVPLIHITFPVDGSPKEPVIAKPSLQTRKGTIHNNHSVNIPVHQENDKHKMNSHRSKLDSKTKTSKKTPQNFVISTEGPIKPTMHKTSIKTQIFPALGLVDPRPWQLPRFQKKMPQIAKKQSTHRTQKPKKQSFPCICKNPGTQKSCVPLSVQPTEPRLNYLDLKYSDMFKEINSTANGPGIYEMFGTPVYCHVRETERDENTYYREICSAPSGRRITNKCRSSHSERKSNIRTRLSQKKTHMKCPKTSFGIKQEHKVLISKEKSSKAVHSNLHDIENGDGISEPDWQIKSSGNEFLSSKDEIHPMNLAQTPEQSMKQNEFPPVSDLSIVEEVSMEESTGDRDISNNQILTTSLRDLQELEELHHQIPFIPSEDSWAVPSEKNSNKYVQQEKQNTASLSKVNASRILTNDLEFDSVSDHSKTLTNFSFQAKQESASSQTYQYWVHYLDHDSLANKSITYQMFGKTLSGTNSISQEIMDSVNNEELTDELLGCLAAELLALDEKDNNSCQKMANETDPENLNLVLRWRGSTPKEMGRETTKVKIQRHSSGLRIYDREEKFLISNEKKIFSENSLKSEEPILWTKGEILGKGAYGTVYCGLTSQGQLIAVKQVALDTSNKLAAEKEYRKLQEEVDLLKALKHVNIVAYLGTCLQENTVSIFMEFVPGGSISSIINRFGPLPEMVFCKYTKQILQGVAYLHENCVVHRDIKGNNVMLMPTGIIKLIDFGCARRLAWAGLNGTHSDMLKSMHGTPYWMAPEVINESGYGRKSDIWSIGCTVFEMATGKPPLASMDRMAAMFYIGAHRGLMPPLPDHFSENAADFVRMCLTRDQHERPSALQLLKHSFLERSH

[4] = molecular target: Dual specificity protein kinase CLK1 (Homo sapiens, UniProt P49759); assay: Selectivity interaction (Kinase panel (DSF assay)) EUB0001489b CLK1
[5] = molecular target: Serine/threonine-protein kinase/endoribonuclease IRE1 (Homo sapiens) (UniProt O75460); assay: Selectivity interaction (KinomeScan (DiscoverX)) EUB0000607a ERN1; conditions: at 10 µM
Chain of Serine/threonine-protein kinase/endoribonuclease IRE1 (Homo sapiens) (O75460 19-977 limits assumed): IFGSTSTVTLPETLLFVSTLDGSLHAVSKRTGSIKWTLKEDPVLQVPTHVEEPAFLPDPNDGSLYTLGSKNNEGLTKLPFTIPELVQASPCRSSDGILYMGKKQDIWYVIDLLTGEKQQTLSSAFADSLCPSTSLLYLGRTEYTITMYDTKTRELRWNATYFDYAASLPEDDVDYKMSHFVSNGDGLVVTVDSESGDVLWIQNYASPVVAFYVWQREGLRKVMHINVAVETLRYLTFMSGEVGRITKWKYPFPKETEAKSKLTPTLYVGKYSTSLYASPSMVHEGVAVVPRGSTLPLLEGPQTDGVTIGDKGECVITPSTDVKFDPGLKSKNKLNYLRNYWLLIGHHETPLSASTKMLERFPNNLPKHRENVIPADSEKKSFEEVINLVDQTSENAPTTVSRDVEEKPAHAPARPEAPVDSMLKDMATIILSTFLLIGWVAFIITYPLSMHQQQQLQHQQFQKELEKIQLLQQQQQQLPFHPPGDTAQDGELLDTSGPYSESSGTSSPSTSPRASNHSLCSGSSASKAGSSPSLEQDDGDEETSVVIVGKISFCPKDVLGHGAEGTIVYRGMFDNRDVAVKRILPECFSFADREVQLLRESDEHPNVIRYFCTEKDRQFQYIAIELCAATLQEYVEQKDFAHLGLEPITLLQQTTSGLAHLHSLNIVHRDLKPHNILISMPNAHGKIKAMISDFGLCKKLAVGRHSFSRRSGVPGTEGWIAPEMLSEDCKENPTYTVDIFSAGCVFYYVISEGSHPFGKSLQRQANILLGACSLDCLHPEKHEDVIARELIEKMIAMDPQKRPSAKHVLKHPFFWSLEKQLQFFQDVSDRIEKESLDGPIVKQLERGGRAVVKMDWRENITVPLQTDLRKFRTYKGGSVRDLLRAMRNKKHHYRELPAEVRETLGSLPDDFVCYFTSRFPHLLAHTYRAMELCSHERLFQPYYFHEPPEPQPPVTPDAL

Chain of Dual specificity protein kinase CLK1 (P49759 whole entry, looked up): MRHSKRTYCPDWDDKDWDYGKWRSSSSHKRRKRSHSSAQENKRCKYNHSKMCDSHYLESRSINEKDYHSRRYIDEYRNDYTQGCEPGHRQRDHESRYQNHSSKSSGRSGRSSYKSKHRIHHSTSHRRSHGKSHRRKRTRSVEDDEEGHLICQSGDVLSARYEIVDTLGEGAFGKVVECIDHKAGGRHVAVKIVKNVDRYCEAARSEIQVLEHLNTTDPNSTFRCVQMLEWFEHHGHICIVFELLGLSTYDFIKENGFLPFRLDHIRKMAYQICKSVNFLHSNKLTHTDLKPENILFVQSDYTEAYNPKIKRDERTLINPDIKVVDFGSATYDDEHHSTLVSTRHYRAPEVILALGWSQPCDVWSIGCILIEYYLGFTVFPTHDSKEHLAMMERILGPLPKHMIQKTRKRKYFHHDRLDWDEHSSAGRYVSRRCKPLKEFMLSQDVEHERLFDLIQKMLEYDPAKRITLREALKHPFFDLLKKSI
Chain of 5'-AMP-activated protein kinase catalytic subunit alpha-2 (Homo sapiens) (P54646 whole entry, looked up): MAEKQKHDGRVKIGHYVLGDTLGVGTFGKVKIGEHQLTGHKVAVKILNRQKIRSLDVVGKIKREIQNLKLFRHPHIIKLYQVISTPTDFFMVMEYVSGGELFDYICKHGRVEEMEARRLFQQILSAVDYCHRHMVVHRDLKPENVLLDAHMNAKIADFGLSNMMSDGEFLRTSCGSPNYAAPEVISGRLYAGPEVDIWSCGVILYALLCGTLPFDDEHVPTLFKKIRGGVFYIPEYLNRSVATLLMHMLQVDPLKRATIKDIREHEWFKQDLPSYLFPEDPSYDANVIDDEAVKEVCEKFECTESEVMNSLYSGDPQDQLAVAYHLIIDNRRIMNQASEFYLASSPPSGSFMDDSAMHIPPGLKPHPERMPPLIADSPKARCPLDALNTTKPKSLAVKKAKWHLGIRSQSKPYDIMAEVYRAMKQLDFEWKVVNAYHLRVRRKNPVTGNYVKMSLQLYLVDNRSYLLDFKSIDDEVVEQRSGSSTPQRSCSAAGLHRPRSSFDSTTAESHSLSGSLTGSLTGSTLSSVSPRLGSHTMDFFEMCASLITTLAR

Question: For Cc1cc([C@@H](C)Nc2ccccc2C(=O)O)c2nc(N3CCOCC3)cc(=O)n2c1 [AZD-6482], which % of control [1] is on record?
Answer: Its % of control is 85%.

Question: Which results are given for COc1cc(Nc2nc(C)cc(-c3cnn4nc(OC)ccc34)n2)cc(C(F)(F)F)c1?
Answer: % of control [2]: 100%; % of control [3]: 75%

Question: Which dTM [4] does the source give for CN1CCN(C(=O)c2ccc3cc2OCCOCCNc2ccn4ncc-3c4n2)CC1 here?
Answer: The dTM was 2.9 K.

Question: For CNC(=O)Nc1ccc(-c2nc(N3CC4CCC(C3)O4)c3cnn(C4CCC5(CC4)OCCO5)c3n2)cc1, which % of control [5] is on record?
Answer: Its % of control is 93%.
